In patent publication US20140288044A1, “COMPOSITIONS AND THERAPEUTIC USES OF IKK-RELATED KINASE EPSILON AND TANKBINDING KINASE 1 INHIBITORS” (Alzheimer's Institute of America, Inc., priority 2011, published 2014):
Where two headings read alike, the source gives them in different places.

Experiments:
[1] = tested on: IKKε-mediated phosphorylation of IRF3; assay: ELISA for in-situ phosphorylation of IRF3 (phospho-Ser396) in HEK293T cells cotransfected with IRF3 and IKKε; type: cell-based; conditions: Homo sapiens, HEK-293T, 20 h, HEK293T cells, 20 hours, read-out: IC50, in-situ IKKε-mediated phosphorylation of IRF3
Protocol: HEK293T cells were cotransfected in a 10-cm dish with IRF3 and IKKε expression plasmids using Lipofectamine 2000 (Invitrogen, Carlsbad, Calif.). The following day, cells were replated at 20,000 per well in 96-well plates and treated with test compounds (compounds according to Formulae I and/or II) for 20 hours. Cell lysates were prepared and analyzed using an ELISA for phospho-Ser396 (anti-IRF3 capture antibody, Santa Cruz Biotechnology, Inc., Santa Cruz, Calif.; anti-p-Ser396 IRF3 detection antibody, Cell Signaling, Danvers, Mass.). pIRF3 levels in compound treated cells were normalized to DMSO treated cells (no compound). Cell viability was assayed in a parallel set of plates to monitor cytotoxic effects of the test compounds (CellTiter-Glo, Promega, Inc., Madison, Wis.). TBK1 activity was tested by Western blotting using a phospho-specific IRF7 antibody. Similar to above, HEK293T cells were transfected with IRF7 and TBK1 expression plasmids. Cells were seeded in 12-well plates at 150,000 per well and treated overnight with test compounds. Protein lysates were prepared and processed for Western blotting followed by detection using a phosphor-Ser477/Ser479 IRF7 antibody (BD Biosciences, San Jose, Calif.)

IKKε = target: T1, IKKε (Homo sapiens, UniProt Q14164); assay: In-vitro IKKε kinase assay (radiolabelled ATP, filterplate); type: biochemical
T1 construct: His-tag (in-house Sf9 preparation) or GST-tag (purchased Invitrogen preparation); these are alternatives, not both on one protein; host or cells: Sf9 cells
T1 sequence (Q14164 1-716): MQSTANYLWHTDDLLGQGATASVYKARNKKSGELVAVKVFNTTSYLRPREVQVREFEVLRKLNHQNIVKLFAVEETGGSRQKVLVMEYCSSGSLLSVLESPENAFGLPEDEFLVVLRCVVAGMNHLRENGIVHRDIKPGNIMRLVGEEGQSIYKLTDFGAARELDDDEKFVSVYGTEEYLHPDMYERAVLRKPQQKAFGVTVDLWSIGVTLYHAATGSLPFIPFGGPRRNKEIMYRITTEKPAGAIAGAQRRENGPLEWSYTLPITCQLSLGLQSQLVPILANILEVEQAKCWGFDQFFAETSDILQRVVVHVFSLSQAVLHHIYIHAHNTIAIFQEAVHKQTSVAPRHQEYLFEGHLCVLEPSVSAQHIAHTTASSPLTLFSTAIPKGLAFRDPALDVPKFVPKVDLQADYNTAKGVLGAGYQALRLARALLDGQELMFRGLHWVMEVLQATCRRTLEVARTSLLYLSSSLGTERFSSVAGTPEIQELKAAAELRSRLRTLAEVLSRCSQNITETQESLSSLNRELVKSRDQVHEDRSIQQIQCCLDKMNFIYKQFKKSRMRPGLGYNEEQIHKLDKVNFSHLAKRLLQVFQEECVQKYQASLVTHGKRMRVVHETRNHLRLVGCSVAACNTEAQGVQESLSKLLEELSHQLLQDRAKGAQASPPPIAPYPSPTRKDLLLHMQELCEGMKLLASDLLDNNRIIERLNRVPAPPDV
Protocol: IKKε enzyme was produced as a His-tag fusion in Sf9 cells or purchased as a GST-tag fusion (Invitrogen, Carlsbad, Calif.). TBK1 enzyme was produced as a His-tag fusion in Sf9 cells. Kinase reactions were carried out in reaction buffer using myelin basic protein (Millipore, Ballerica, Mass.), casein or dephosphorylated casein (Sigma, St. Louis, Mo.) as substrate at an ATP concentration equal to twice the Km,ATP value for each enzyme, corresponding to 32 μM ATP for IKKε and 60 μM ATP for TBK1. Radiolabelled [γ^33]ATP (PerkinElmer, Waltham, Mass.) in the amount of […] (IKKe, “normal”) or 0.7 μCi (IKKε, “sensitized”) or 1.25 μCi (TBK1) was added to each assay. Final enzyme concentrations were 0.1 or 0.015 μg/ml (IKKε) and 0.1 or 0.02 μg/ml (TBK1) for the “normal” and “sensitized” assay, respectively, and “sensitized” assays were conducted using only dephosphorylated casein as substrate. Test compounds (or DMSO solvent as a control) were added prior to initiation of the reactions. Reactions were terminated after 30-45 minutes by adding 3% phosphoric acid. Terminated reactions were transferred to P-81 cellulose phosphate filterplates (Whatman, Inc., Piscataway, N.J.) and washed with 1% phosphoric acid on a vacuum apparatus. After air drying, scintillant (PerkinElmer, Waltham, Mass.) was added and the plates were read on a PerkinElmer TopCount NXT instrument. Counts were normalized to DMSO controls after background subtraction.

[2] = range given from about 1 μM to about 250 nM
[3] = "sensitized" assay, read-out: IC50, inhibition of the kinase activity of IKKε

SMILES	IC50 [1]	also measured
N#Cc1cc(-c2ccnc(Nc3cncc(C(=O)N4CCN(CCO)CC4)c3)n2)ccc1OC1CCOCC1 [Example Compound 174, 5-{2-[(5-{[4-(2-Hydroxyethyl)piperazin-1-yl]carbonyl}pyridin-3-yl)amino]pyrimidin-4-yl}-2-(tetrahydro-2H-pyran-4-yloxy)benzonitrile]	1000 to 5000 nM	–
CNCc1cncc(Nc2nccc(-c3ccc(OC4CCOCC4)c(C#N)c3)n2)c1 [Example Compound 203, 5-[2-({5-[(Methylamino)methyl]pyridin-3-yl}amino)pyrimidin-4-yl]-2-(tetrahydro-2H-pyran-4-yloxy)benzonitrile]	–	IC50 [1, 2]: 250 to 1000 nM
N#Cc1cc(-c2ccnc(Nc3ccc(N4CCC(N5CCOCC5)C4)nn3)n2)ccc1OC1CCOCC1 (stereo not shown) [Example Compound 177, 5-[2-({6-[3-(Morpholin-4-yl)pyrrolidin-1-yl]pyridazin-3-yl}amino)pyrimidin-4-yl]-2-(tetrahydro-2H-pyran-4-yloxy)benzonitrile]	1000 to 5000 nM	–
COc1cc(-c2ccnc(Nc3ccc(CN4CCC4)nc3)n2)cc(C#N)c1OC1CCOCC1 [Example Compound 115, 5-(2-{[6-(Azetidin-1-ylmethyl)pyridin-3-yl]amino}pyrimidin-4-yl)-3-methoxy-2-(tetrahydro-2H-pyran-4-yloxy)benzonitrile]	–	IC50 [1, 2]: 250 to 1000 nM
Cc1ccc(Nc2nccc(-c3ccc(NC(=O)C(C)C)c(C#N)c3)n2)cn1 [Example Compound 136, N-(2-Cyano-4-{2-[(6-methylpyridin-3-yl)amino]pyrimidin-4-yl}phenyl)-2-methylpropanamide]	1000 to 5000 nM	–
COC1CN(C(=O)c2ccc(Nc3nccc(-c4ccc(OC5CCOCC5)c(C#N)c4)n3)cn2)C1 [Example Compound 31, 5-[2-({6-[(3-Methoxyazetidin-1-yl)carbonyl]pyridin-3-yl}amino)pyrimidin-4-yl]-2-(tetrahydro-2H-pyran-4-yloxy)benzonitrile]	100 to 250 nM	–
N#Cc1cc(-c2ccnc(Nc3ccc(C4CC4)nc3)n2)ccc1NC(=O)C1CC1 [Example Compound 140, N-(2-Cyano-4-{2-[(6-cyclopropylpyridin-3-yl)amino]pyrimidin-4-yl}phenyl)cyclopropanecarboxamide]	< 100 nM	–
COC1CN(C(=O)c2cncc(Nc3nccc(-c4ccc(OC5CCOCC5)c(C#N)c4)n3)c2)C1 [Example Compound 171, 5-[2-({5-[(3-Methoxyazetidin-1-yl)carbonyl]pyridin-3-yl}amino)pyrimidin-4-yl]-2-(tetrahydro-2H-pyran-4-yloxy)benzonitrile]	–	IC50 [1, 2]: 250 to 1000 nM
Cc1ccc(Nc2nccc(-c3ccc(O[C@@H]4CCN(C(=O)CO)C4)c(C#N)c3)n2)cn1 [Example Compound 118, 2-{[(3R)-1-(Hydroxyacetyl)pyrrolidin-3-yl]oxy}-5-{2-[(6-methylpyridin-3-yl)amino]pyrimidin-4-yl}benzonitrile]	–	IC50 [1, 2]: 250 to 1000 nM
CN(C)c1ccc(-c2ccc(Nc3nccc(-c4ccc(OC5CCOCC5)c(C#N)c4)n3)cn2)cn1 [Example Compound 169, 5-(2-{[6′-(Dimethylamino)-2,3′-bipyridin-5-yl]amino}pyrimidin-4-yl)-2-(tetrahydro-2H-pyran-4-yloxy)benzonitrile]	1000 to 5000 nM	–
CN(C)c1ccc(Nc2nccc(-c3ccc(O[C@@H]4CCN(C(=O)CO)C4)c(C#N)c3)n2)cn1 [Example Compound 124, 5-(2-{[6-(Dimethylamino)pyridin-3-yl]amino}pyrimidin-4-yl)-2-{[1-(hydroxyacetyl)pyrrolidin-3-yl]oxy}benzonitrile]	100 to 250 nM	–
COC1CN(c2cc(Nc3nccc(-c4ccc(NC(=O)C(C)C)c(C#N)c4)n3)ccn2)C1 [Example Compound 247, N-[2-Cyano-4-(2-{[2-(3-methoxyazetidin-1-yl)pyridin-4-yl]amino}pyrimidin-4-yl)phenyl]-2-methylpropanamide]	–	IC50 [1, 2]: 250 to 1000 nM
COc1cc(-c2ccnc(Nc3ccc(CN4CC(OC)C4)nc3)n2)cc(C#N)c1OC1CCOCC1 [Example Compound 116, 3-Methoxy-5-[2-({6-[(3-methoxyazetidin-1-yl)methyl]pyridin-3-yl}amino)pyrimidin-4-yl]-2-(tetrahydro-2H-pyran-4-yloxy)benzonitrile]	100 to 250 nM	–
N#Cc1cc(-c2ccnc(Nc3cncc(CN4CCN(CCO)CC4)c3)n2)ccc1OC1CCOCC1 [Example Compound 186, 5-{2-[(5-{[4-(2-Hydroxyethyl)piperazin-1-yl]methyl}pyridin-3-yl)amino]pyrimidin-4-yl}-2-(tetrahydro-2H-pyran-4-yloxy)benzonitrile]	1000 to 5000 nM	–
Cc1ccc(Nc2nccc(-c3ccc(OC4CCN(C(=O)CO)CC4)c(C#N)c3)n2)cn1 [Example Compound 221, 2-{[1-(Hydroxyacetyl)piperidin-4-yl]oxy}-5-{2-[(6-methylpyridin-3-yl)amino]pyrimidin-4-yl}benzonitrile]	–	IC50 (IKKε; [3]): < 5 nM
C[C@H](O)C(=O)N1CCC(Oc2ccc(-c3ccnc(Nc4ccc(N5CCOCC5)nc4)n3)cc2C#N)CC1 [Example Compound 127, 2-({1-[(2S)-2-Hydroxypropanoyl]piperidin-4-yl}oxy)-5-(2-{[6-(morpholin-4-yl)pyridin-3-yl]amino}pyrimidin-4-yl)benzonitrile]	–	IC50 (IKKε; [3]): < 5 nM; IC50 (IKKε; in-vitro IKKε kinase inhibition assays, given as 0.005 μM (5 nM), read-out: IKKε kinase inhibitory activity (IC50 value)): < 5 nM

Now from value to molecule, other results behind:

IC50 [1]	SMILES	also measured
100 to 250 nM	CN(C)Cc1cncc(Nc2nccc(-c3ccc(OC4CCOCC4)c(C#N)c3)n2)c1 [Example Compound 201, 5-[2-({5-[(Dimethylamino)methyl]pyridin-3-yl}amino)pyrimidin-4-yl]-2-(tetrahydro-2H-pyran-4-yloxy)benzonitrile]	–
1000 to 5000 nM	N#Cc1cc(-c2ccnc(Nc3ccc[n+]([O-])c3)n2)ccc1OC1CCOCC1 [Example Compound 236, 5-{2-[(1-Oxidopyridin-3-yl)amino]pyrimidin-4-yl}-2-(tetrahydro-2H-pyran-4-yloxy)benzonitrile]	–
1000 to 5000 nM	C[C@H](O)C(=O)N1CCC(Oc2ccc(-c3ccnc(Nc4ccc(N5CC(O)C5)nc4)n3)cc2C#N)CC1 [Example Compound 253, 5-(2-{[6-(3-Hydroxyazetidin-1-yl)pyridin-3-yl]amino}pyrimidin-4-yl)-2-({1-[(2S)-2-hydroxypropanoyl]piperidin-4-yl}oxy)benzonitrile]	–
100 to 250 nM	CNCc1cncc(Nc2nccc(-c3ccc(OC4CCOCC4)c(C#N)c3)n2)c1 [Example Compound 202, 5-[2-({5-[(Methylamino)methyl]pyridin-3-yl}amino)pyrimidin-4-yl]-2-(tetrahydro-2H-pyran-4-yloxy)benzonitrile]	–
100 to 250 nM	COC1CN(C(C)c2ccc(Nc3nccc(-c4ccc(OC5CCOCC5)c(C#N)c4)n3)cn2)C1 (stereo not shown) [Example Compound 234, 5-[2-({6-[1-(3-Methoxyazetidin-1-yl)ethyl]pyridin-3-yl}amino)pyrimidin-4-yl]-2-(tetrahydro-2H-pyran-4-yloxy)benzonitrile]	–
